The numbers were not newly measured in US20120129178A1, “GENOMIC POLYMORPHISM FOR PREDICTING THERAPEUTIC RESPONSE” (University of Southern California, priority 1999, published 2012), which cites them from elsewhere.

Read-outs that look alike come from different tables or passages of the source.

The subject of series [1] is patients with gastric cancer. Conditions: gastric cancer patients treated with 5-Fu.
In series [2] the test system is patients with disseminated colon cancer. Conditions: 46 patients with disseminated colon cancer; TS mRNA levels higher than 4.1.

For the compound `O=c1[nH]cc(F)c(=O)[nH]1` [5-FU, 5-Fluorouracil], the median survival was 6 months in series [1] (TS mRNA levels >4.6) and no less than 43 months in series [1] (TS mRNA levels of 54.6 (so in the source)). Besides, in series [2], the “response to 5-FU based treatment” value is “No patient with TS mRNA levels higher than 4.1 responded to treatment”.
